Experimental data taken from patent publication US20090082408A1, “NOVEL HETEROCYCLIC DERIVATIVES” (priority 2005, published 2009).
Structures can show the parent of a compound that is named as a salt.

Assays:
3T3-L1 cells = test: Glucose uptake assay using 3T3-L1 cells; type: cell-based; conditions: 14C deoxyglucose uptake in differentiated 3T3-L1 adipocytes; 1 μM for 72 hours; relative to reference compound BLX-1002
Procedure: Glucose Uptake Assay Using 3T3-L1 Cells
3T3-L1 cells were differentiated by the addition of differentiation cocktail (72 μg/ml insulin, 0.5 mM IBMX, 400 ng/ml Dexamethasone) for 4 days and were later fed with media without the differentation cocktail for 7-8 days. After differentiation the cells were incubated with the either the reference compound BLX-1002 or with the compounds listed in the table 1 at 1 μM concentrations for 72 hours, and the glucose uptake assay was carried out for 10 minutes by the addition of KRP buffer supplemented with 2.5 μCi/ml ^14C deoxy glucose. Stimulation Index is defined as the amount of ^14C Deoxyglucose uptake induced by 1 μM of BLX-1002 incubated for 72 hours in an assay condition as per the protocol described above with differentiated 3T3-L1 adipocytes. The values for compounds mentioned in table-1 are with reference to the stimulation index of reference compound BLX-1002.

[1] = system: streptozotocin induced diabetic mice; test: Antidiabetic activity in streptozotocin induced diabetic mice; type: in vivo; conditions: 50 mg/kg body weight, oral route, 7 days, female Swiss albino mice, fasted 6 hours
Procedure: Antidiabetic Activity in Streptozotocin Induced Diabetic Mice
Female Swiss albino mice, at the age of 10 weeks were used in the study. Diabetes was induced in the animals by injecting streptozotocin by i.p. route at a dose of 200 mg/kg body weight. 48 hours after streptozotocin administration, the animals were kept fasting for 6 hours. Subsequently blood was collected, plasma separated and the glucose was estimated. Animals showing greater than 200 mg/dl glucose levels were considered as diabetic and these animals were randomly distributed into various groups. The example 2 listed in the table 2 was administered at a dose of 50-mg/kg body weight by oral route for 7 days. Later the animals were fasted for 6 hours, the blood was collected and the plasma was separated. Biochemical estimations like glucose, cholesterol and triglycerides were carried out using the plasma. The effect of the compounds mentioned in the table was expressed in terms of percentage reduction in biochemical values as compared to the control group.

Row | SMILES | Stimulation Index (3T3-L1 cells) | % Reduction Glucose ([1]; plasma glucose vs control group) [%] | % Reduction Triglyceride ([1]; plasma triglyceride vs control group) [%]
1 | COC(=O)C(N)Cc1ccc(Oc2ccc(Nc3ccccn3)cc2)cc1 (stereo not drawn) [Example 1, Methyl-2-amino-3-{4-[4-(pyridin-2-ylamino)phenoxy]phenyl}propionate dihydrochloride] | 1.10 |  | 
2 | COC(=O)[C@@H](N)Cc1ccc(Oc2ccc(Nc3ccccn3)cc2)cc1 [Example 2, Methyl (2S)-2-amino-3-{4-[4-(pyridin-2-ylamino)phenoxy]phenyl}propanoate dihydrochloride] |  | 52.4 | 49.6
